Experimental findings from PubChem BioAssay AID588641 (Sanford-Burnham Center for Chemical Genomics, 2011) are described below.

In the assay the target is alkaline phosphatase, placental type (human). As to the kind of experiment: PLAP enzyme inhibition by analogs, SAR follow-up, selectivity assay for mouse IAP inhibitor project, biochemical, human PLAP isozyme, set 2 (AID 588641). As to conditions: purified human placental alkaline phosphatase, enzyme activity.

pIC50: −log10 of the molar value. Calls of active or inactive are those of the source. How the calls were made is not given here.

Turning to `COc1ccc(NC(=O)CCCNS(=O)(=O)c2ccc3[nH]c(=O)oc3c2)c(OC)c1`, the IC50 was > 100 µM (inactive).

`C/C(=N\NC(=O)c1cc(O)c(O)c(O)c1)c1ccc(O)cc1O`: the IC50 is > 100 µM (inactive). On the same count and under the same terms, under `O=C(CCCNS(=O)(=O)c1ccc2[nH]c(=O)oc2c1)NCc1cccc(F)c1` stands > 100 µM (inactive). On to `O=C(CCNS(=O)(=O)c1ccc2[nH]c(=O)oc2c1)Nc1ccc2c(c1)OCO2`, for which the IC50 was > 100 µM (inactive). With `O=C(CCS(=O)(=O)Nc1ccc2[nH]c(=O)oc2c1)NCc1ccccc1Cl`, the IC50 was > 100 µM (inactive). Regarding `COc1ccc(CNC(=O)CNS(=O)(=O)c2ccc3[nH]c(=O)oc3c2)cc1`, the IC50 was > 100 µM (inactive). Turning to `COc1ccc(CNS(=O)(=O)c2ccc3[nH]c(=O)oc3c2)c(OC)c1`, the IC50 is > 100 µM (inactive).

Consider `O=C(CCS(=O)(=O)Nc1ccc2[nH]c(=O)oc2c1)NCc1cccc(F)c1`, for which the IC50 was > 100 µM (inactive).

As to `CCOc1cc(C(=O)N/N=C/c2c(F)cccc2Cl)cc(OCC)c1OCC`, the IC50 was > 100 µM (inactive).

Consider `Cc1ccc(NC(=O)CCNS(=O)(=O)c2ccc3c(c2)oc(=O)n3C)cc1`, for which the IC50 was > 100 µM (inactive).

Turning to `COc1ccc(CNS(=O)(=O)c2ccc3[nH]c(=O)oc3c2)cc1`, the IC50 was > 100 µM (inactive).

Consider `Cc1ccc(C)c(NC(=O)CNS(=O)(=O)c2ccc3[nH]c(=O)oc3c2)c1`, for which the IC50 was > 100 µM (inactive). As for `N#Cc1cccc(NC(=O)CNS(=O)(=O)c2ccc3[nH]c(=O)oc3c2)c1`, the IC50 was > 100 µM (inactive). For the molecule `Cc1ccc(NC(=O)CCNS(=O)(=O)c2ccc3c(c2)oc(=O)n3C)cc1C`, the IC50 is > 100 µM (inactive). As to `COc1ccc(NC(=O)CCNS(=O)(=O)c2ccc3c(c2)CCC3)cc1OC`, the IC50 is > 100 µM (inactive). Same read-out and setting: under `O=c1[nH]c2ccc(S(=O)(=O)NCc3ccc4c(c3)OCO4)cc2o1` stands > 100 µM (inactive); under `O=C(N/N=C/c1c(F)cccc1Cl)c1cc(O)c(O)c(O)c1`, > 100 µM (inactive); under `COc1cc(C(=O)N/N=C/c2c(F)cccc2Cl)cc(OC)c1OC`, > 100 µM (inactive). With `Cc1ccc(NC(=O)CCNS(=O)(=O)c2ccc3c(c2)oc(=O)n3C)c(C)c1`, the IC50 was > 100 µM (inactive). Turning to `O=C(N/N=C/c1ccccc1F)c1ccccc1OCc1ccccc1`, the IC50 was > 100 µM (inactive). On to `O=C(N/N=C/c1ccccc1F)c1ccc(O)cc1`, for which the IC50 was > 100 µM (inactive). On the same count and under the same terms, the result for `O=C(CNS(=O)(=O)c1ccc2[nH]c(=O)oc2c1)NCCc1ccc2c(c1)OCO2` reads > 100 µM (inactive); that for `O=C(CCNS(=O)(=O)c1ccc2[nH]c(=O)oc2c1)NCc1ccccc1`, > 100 µM (inactive); that for `CCOc1cc(C(=O)N/N=C/c2ccccc2F)cc(OCC)c1OCC`, > 100 µM (inactive).

In the case of `CC(C)c1ccc(NC(=O)C2CCCN(S(=O)(=O)c3ccc4c(c3)oc(=O)n4C)C2)cc1` (stereo unspecified), the IC50 is > 100 µM (inactive).

With `COc1ccc(CNC(=O)CCNS(=O)(=O)c2ccc3c(c2)CCC3)c(OC)c1`, the IC50 was > 100 µM (inactive). `COc1ccc(CNC(=O)CCNS(=O)(=O)c2ccc3[nH]c(=O)oc3c2)c(OC)c1`: the IC50 is > 100 µM (inactive).

As for `O=C(CCNS(=O)(=O)c1ccc2[nH]c(=O)oc2c1)NCc1ccc2c(c1)OCO2`, the IC50 is > 100 µM (inactive). Consider `COc1cc(/C=N/NC(=O)c2cc(O)c(O)c(O)c2)ccc1O`, for which the IC50 was > 100 µM (inactive). Take `COc1ccc(CNC(=O)CCCNS(=O)(=O)c2ccc3[nH]c(=O)oc3c2)c(OC)c1`: the IC50 is > 100 µM (inactive).

`CCc1ccc(NC(=O)C2CCCN(S(=O)(=O)c3ccc4c(c3)oc(=O)n4C)C2)cc1` (stereo unspecified): the IC50 was > 100 µM (inactive). As to `N#Cc1cccc(CNC(=O)CCNS(=O)(=O)c2ccc3[nH]c(=O)oc3c2)c1`, the IC50 is > 100 µM (inactive). `COc1ccc(NS(=O)(=O)c2ccc3[nH]c(=O)oc3c2)cc1OC`: the IC50 was > 100 µM (inactive). The same measure, in the same setting: the result for `N#Cc1ccc(NC(=O)CNS(=O)(=O)c2ccc3[nH]c(=O)oc3c2)cc1` reads > 100 µM (inactive); that for `COc1ccc(NC(=O)CCNS(=O)(=O)c2ccc3[nH]c(=O)oc3c2)cc1OC`, > 100 µM (inactive); that for `COc1cccc(CNC(=O)CCNS(=O)(=O)c2ccc3[nH]c(=O)oc3c2)c1`, > 100 µM (inactive).

Regarding `O=C(N/N=C/c1c(F)cccc1Cl)c1ccc(O)cc1O`, the IC50 was > 100 µM (inactive).

Take `O=C(CCCNS(=O)(=O)c1ccc2[nH]c(=O)oc2c1)NCCc1ccc(O)cc1`: the IC50 was > 100 µM (inactive).

With `O=C(N/N=C/c1ccccc1C(F)(F)F)c1cc(O)c(O)c(O)c1`, the IC50 was > 100 µM (inactive). As for `O=C(N/N=C/c1ccccc1F)c1ccc(O)cc1O`, the IC50 was > 100 µM (inactive).

For the molecule `O=C(N/N=C/c1ccc(F)c(Br)c1)c1cc(O)c(O)c(O)c1`, the IC50 is > 100 µM (inactive).

In the case of `COc1ccc(C(=O)N/N=C/c2c(F)cccc2Cl)cc1OC`, the IC50 is > 100 µM (inactive).

Take `O=C(CCNS(=O)(=O)c1ccc2[nH]c(=O)oc2c1)NCc1cccc(F)c1`: the IC50 is > 100 µM (inactive).

On to `COc1ccc(C(=O)N/N=C/c2ccccc2F)cc1`, for which the IC50 was > 100 µM (inactive). On to `O=C(CCNS(=O)(=O)c1ccc2[nH]c(=O)oc2c1)NCc1ccc(C(F)(F)F)cc1`, for which the IC50 is > 100 µM (inactive). Regarding `O=C(N/N=C/c1cccc(Cl)c1Cl)c1cc(O)c(O)c(O)c1`, the IC50 is > 100 µM (inactive). Consider `CC(=NNC(=O)c1ccccc1OCCOc1ccccc1)c1ccccc1F`, for which the IC50 is > 100 µM (inactive). Consider `O=C(CCNS(=O)(=O)c1ccc2c(c1)CCC2)NCCc1ccc2c(c1)OCO2`, for which the IC50 is > 100 µM (inactive). The same measure, in the same setting: the result for `N#Cc1ccc(NS(=O)(=O)c2ccc3[nH]c(=O)oc3c2)cc1` reads > 100 µM (inactive); that for `O=C(N/N=C/c1c(Cl)cccc1Cl)c1cc(O)c(O)c(O)c1`, > 100 µM (inactive); that for `O=C(CCNS(=O)(=O)c1ccc2[nH]c(=O)oc2c1)NCCc1ccc(O)cc1`, > 100 µM (inactive). `COc1ccc(OC)c(NC(=O)C2CCCN(S(=O)(=O)c3ccc4c(c3)oc(=O)n4C)C2)c1` (stereo unspecified): the IC50 is > 100 µM (inactive).

With `COc1ccccc1CNC(=O)CCCNS(=O)(=O)c1ccc2[nH]c(=O)oc2c1`, the IC50 is > 100 µM (inactive).

In the case of `Cc1cc(NC(=O)CCNS(=O)(=O)c2ccc3[nH]c(=O)oc3c2)ccc1Br`, the IC50 is > 100 µM (inactive).

As to `COc1cccc(/C=N/NC(=O)c2cc(O)c(O)c(O)c2)c1O`, the IC50 is > 100 µM (inactive).

As to `O=C(CCNS(=O)(=O)c1ccc2ccccc2c1)NCCc1ccc2c(c1)OCO2`, the IC50 is > 100 µM (inactive). Take `O=C(CCNS(=O)(=O)c1ccc2[nH]c(=O)oc2c1)NCc1cccc(C(F)(F)F)c1`: the IC50 is > 100 µM (inactive). Consider `O=c1[nH]c2ccc(S(=O)(=O)Nc3ccc4c(c3)OCO4)cc2o1`, for which the IC50 was > 100 µM (inactive). On the same count and under the same terms, the result for `Cc1ccc(NC(=O)CCNS(=O)(=O)c2ccc3[nH]c(=O)oc3c2)cc1C` reads > 100 µM (inactive); that for `Cc1ccc(C)c(CNC(=O)C2CCCN(S(=O)(=O)c3ccc4[nH]c(=O)oc4c3)C2)c1` (stereo unspecified), > 100 µM (inactive). In the case of `CC(C)(C)c1ccc(/C=N/NC(=O)c2cc(O)c(O)c(O)c2)cc1`, the pIC50 was 4.22. As for `O=C(CCNS(=O)(=O)c1ccc2[nH]c(=O)oc2c1)NCc1ccc(F)cc1`, the IC50 is > 100 µM (inactive).

As to `COc1ccc(/C=N/NC(=O)c2cc(O)c(O)c(O)c2)c(OC)c1`, the IC50 is > 100 µM (inactive). For the molecule `O=C(N/N=C/c1ccccc1Cl)c1cc(O)c(O)c(O)c1`, the IC50 is > 100 µM (inactive). In the case of `COc1ccc(NC(=O)CCNS(=O)(=O)c2ccc3ccccc3c2)cc1OC`, the IC50 was > 100 µM (inactive).

Take `Cc1ccccc1CNC(=O)C1CCCN(S(=O)(=O)c2ccc3[nH]c(=O)oc3c2)C1` (stereo unspecified): the IC50 was > 100 µM (inactive). Consider `COc1ccc(CCNC(=O)CCCNS(=O)(=O)c2ccc3[nH]c(=O)oc3c2)cc1`, for which the IC50 was > 100 µM (inactive).

With `O=C(N/N=C/c1c(F)cccc1Cl)c1ccc(O)cc1`, the IC50 was > 100 µM (inactive).

For `COc1ccc(CCNC(=O)CCCNS(=O)(=O)c2ccc3[nH]c(=O)oc3c2)cc1OC`, the IC50 was > 100 µM (inactive). Same read-out and setting: under `CC(C)Oc1ccc(CNC(=O)C2CCCN(S(=O)(=O)c3ccc4[nH]c(=O)oc4c3)C2)cc1` (stereo unspecified) stands > 100 µM (inactive). Same read-out and setting: the result for `COc1cccc(CNS(=O)(=O)c2ccc3[nH]c(=O)oc3c2)c1` reads > 100 µM (inactive); that for `O=C(NCc1ccc(F)cc1)C1CCCN(S(=O)(=O)c2ccc3[nH]c(=O)oc3c2)C1` (stereo unspecified), > 100 µM (inactive); that for `COc1ccc(CNC(=O)CCCNS(=O)(=O)c2ccc3[nH]c(=O)oc3c2)cc1OC`, > 100 µM (inactive). The same measure, in the same setting: under `CSc1cccc(NC(=O)CCNS(=O)(=O)c2ccc3c(c2)oc(=O)n3C)c1` stands > 100 µM (inactive). Take `Cc1ccc(C)c(NC(=O)CCNS(=O)(=O)c2ccc3[nH]c(=O)oc3c2)c1`: the IC50 was > 100 µM (inactive). In the case of `CC(C)c1ccc(NC(=O)CCNS(=O)(=O)c2ccc3c(c2)oc(=O)n3C)cc1`, the IC50 was > 100 µM (inactive). For the molecule `COc1ccc(NC(=O)CCCNS(=O)(=O)c2ccc3[nH]c(=O)oc3c2)cc1OC`, the IC50 is > 100 µM (inactive). The same measure, in the same setting: the result for `O=C(CCNS(=O)(=O)c1ccc2[nH]c(=O)oc2c1)NCc1ccc(Cl)cc1` reads > 100 µM (inactive); that for `COc1ccc(/C=N/NC(=O)c2cc(O)c(O)c(O)c2)cc1OC`, > 100 µM (inactive).

Turning to `O=C(CCCNS(=O)(=O)c1ccc2[nH]c(=O)oc2c1)NCc1ccccc1Cl`, the IC50 was > 100 µM (inactive). On the same count and under the same terms, under `Cc1ccc(CNC(=O)CCNS(=O)(=O)c2ccc3[nH]c(=O)oc3c2)cc1` stands > 100 µM (inactive).

A word on the IC50: it is the concentration that gives 50% inhibition. In general, pIC50 refers to −log10 of the IC50, conventionally taken in molar units.
